The test system of assay [1] is HCT-116. The assay can be described thus: Antiproliferative activity against human HCT-116 cells assessed as reduction in cell viability incubated for 48 hrs by MTT assay. The assay is classed as functional, cell-based. Particulars: HCT-116, 48 h. A general note: Tetrazolium dyes change colour on reduction, which living cells bring about.
The subject of assay [2] is SW480. The experiment in a line: Antiproliferative activity against human SW480 cells assessed as reduction in cell viability incubated for 48 hrs by MTT assay. Format: functional, cell-based. Particulars: SW480, 48 h.
The test system of assay [3] is HeLa. The experiment in a line: Antiproliferative activity against human HeLa cells assessed as reduction in cell viability incubated for 48 hrs by MTT assay. The assay is classed as functional, cell-based.
Assay [4] has as its system A549. The assay can be described thus: Antiproliferative activity against human A549 cells assessed as reduction in cell viability incubated for 48 hrs by MTT assay. Particulars: A549, 48 h. The assay is classed as functional, cell-based.
Assay [5] has as its system U-87 MG. The experiment in a line: Antiproliferative activity against human U-87 MG cells assessed as reduction in cell viability incubated for 48 hrs by MTT assay. The assay is classed as functional, cell-based, U-87MG ATCC.
The test system of assay [6] is SW480. The experiment in a line: Binding affinity to 75kDa protein in human SW480 cells incubated for overnight by pull down based western blot analysis. The assay is classed as cell-based.
The subject of assay [7] is HCT-116. The experiment in a line: Potency index, ratio of 5-FU IC50 to test compound IC50 for antiproliferative activity against human HCT-116 cells. Format: functional.
The subject of assay [8] is SW480. The experiment in a line: Binding affinity to 75kDa protein in human SW480 cells incubated for overnight by pull down based silver staining analysis. Format: cell-based.

The record followed here is ChEMBL document CHEMBL4811228, “Design, Synthesis, and Activity Evaluation of Novel Acyclic Nucleosides as Potential Anticancer Agents In Vitro and In Vivo” (J Med Chem, 2021).

Active and inactive are the calls of the source. The calls are words filed in the database; no cut-off is given here.

What is called IC50 is the concentration that gives 50% inhibition. For `O=c1[nH]cc(F)c(=O)[nH]1` [FLUOROURACIL], the half-inhibitory concentration (IC50) in assay [1] was 10.8 µM; in assay [2], 9.7 µM; in assay [3], over 50 µM; in assay [4], over 50 µM; in assay [5] it was over 50 µM.
`C#CCCC1(CCN)N=N1`: the outcome in assay [6] was inactive.
Regarding `CCCCCCCCCC(CCn1cc(-c2ccccc2)nn1)n1cnc2c(Cl)ncnc21` (racemic), the IC50 in assay [1] was 13.5 µM; in assay [2], 9.92 µM.
Consider `CCCCCC(CCO)n1cnc2c(N(C)C)ncnc21` (racemic), for which the 50% inhibitory concentration (IC50) in assay [1] and in assay [2] was over 50 µM in each case.
In the case of `CCCCCCCCCC(CCO)n1cnc2c(NC)ncnc21` (racemic), the IC50 in assay [1] came out at 5.41 µM; in assay [2] it was 4.45 µM.
The like results for `CCCCCCCCCC(CCCl)n1cnc2c(Cl)ncnc21` (racemic) were, in that order, 10.2 µM and 7.18 µM.
The like results for `CCCCCCC(CCO)n1cnc2c(N)nc(Cl)nc21` (racemic) were, in that order, over 50 µM and over 50 µM.
The like results for `CCCCCCC(CCO)n1cnc2c(NC)ncnc21` (racemic) were, in that order, over 50 µM and over 50 µM.
Turning to `CCCCCCCC[C@@H](CCO)n1cnc2c(Cl)ncnc21`, the IC50 in assay [1] was determined as 3.4 µM; in assay [2], 2.33 µM.
Turning to `CCCCCCC(CCO)n1cnc2c(OC)ncnc21` (racemic), the concentration for half-maximal inhibition (IC50) in assay [1] and in assay [2] was over 50 µM each time.
In the case of `CCCCCCCCC(CCO)n1cnc2c(Cl)nc(Cl)nc21` (racemic), the half-maximal inhibitory concentration (IC50) in assay [1] came to 22.2 µM; in assay [2], 24 µM.
For `CCCCCCCCCCC(CCO)n1cnc2c(N)nc(Cl)nc21` (racemic), the 50% inhibitory concentration (IC50) in assay [1] is 11.8 µM; in assay [2], 13.1 µM.
As to `CCCCCCCCCC(CCOCP(=O)(OCC)OCC)n1cnc2c(Cl)ncnc21` (racemic), the IC50 in assay [1] worked out at 9.11 µM; in assay [2], 4.79 µM.
As for `CCCCCC(CCO)n1cnc2c(N)ncnc21` (racemic), the concentration for half-maximal inhibition (IC50) in assay [1] and in assay [2] was over 50 µM each time.
In the case of `CCCCCCCCC(CCO)n1cnc2c(N(C)C)ncnc21` (racemic), the figures for the half-inhibitory concentration (IC50) in assay [1] and in assay [2] were 19.8 µM and 21.6 µM, respectively.
The like results for `CCCCCCCCC[C@H](CCn1cc(-c2ccccc2)nn1)n1cnc2c(Cl)ncnc21` were, in that order, 8.13 µM and 8.57 µM.
The like results for `CCCCCCCCC(CCO)n1cnc2c(Cl)ncnc21` (racemic) were, in that order, 1.65 µM and 1.37 µM.
The like results for `CCCCCCCCCCC(CCO)n1cnc2c(NC)ncnc21` (racemic) were, in that order, 12.7 µM and 12 µM.
On to `CCCCCCCCCCC(CCO)n1cnc2c(Cl)ncnc21` (racemic), for which the half-maximal inhibitory concentration (IC50) in assay [1] was 4.93 µM; in assay [2] it was 3.16 µM.
Turning to `C=C(CO)C(CCCCC)n1cnc2c(Cl)ncnc21` (racemic), the IC50 in assay [1] and in assay [2] was over 50 µM throughout.
In the case of `CCCCCCCCC(CCO)n1cnc2c(OC)ncnc21` (racemic), the values for the IC50 in assay [1] and in assay [2] were 12.8 µM and 24.6 µM, respectively.
Consider `CC(CCO)n1cnc2c(Cl)nc(F)nc21` (racemic), for which the IC50 is 19.8 µM in assay [1] and 16.8 µM in assay [2].
For the molecule `CCCCCC(CCO)n1cnc2c(Cl)nc(F)nc21` (racemic), the half-inhibitory concentration (IC50) stood at 8.66 µM in assay [1] and 7.44 µM in assay [2].
The like results for `CCCCCCCCCC(CCO)n1cnc2c(N)nc(Cl)nc21` (racemic) were, in that order, 14.8 µM and 12.2 µM.
Consider `CCCCCCCCCCC(CCO)n1cnc2c(N)ncnc21` (racemic), for which the half-inhibitory concentration (IC50) in assay [1] is 2.59 µM. Moreover, the “Ratio IC50” value in assay [7] turned out to be 4.
Consider `CCCCCCCCCCCC(CCO)n1cnc2c(NC)ncnc21` (racemic), for which the values for the IC50 in assay [1] and in assay [2] were 15.4 µM and 12.8 µM, respectively.
The like results for `CCCCCCC[C@@H](CCO)n1cnc2c(Cl)ncnc21` were, in that order, 10.7 µM and 3.82 µM.
On to `CCCCCCCCCC(CC(=O)NCCCCCNC(=O)CCCC[C@@H]1SC[C@@H]2NC(=O)N[C@@H]21)n1cnc2c(Cl)ncnc21` (mixture of isomers), for which the IC50 in assay [1] came to 44.7 µM; in assay [2], 45.2 µM. For the same molecule, in assay [8], the outcome was Active.
As to `CCCCCCCCCC(CCO)n1cnc2c(OC)ncnc21` (racemic), the values for the IC50 in assay [1] and in assay [2] were 2.53 µM and 3.25 µM, respectively.
The like results for `CCCCCCCCCC(CCO)n1cnc2c(N)ncnc21` (racemic) were, in that order, 10.5 µM and 6.03 µM.
The like results for `CCCCCCCCC[C@H](CCCl)n1cnc2c(Cl)ncnc21` were, in that order, 9.58 µM and 3.18 µM.
The like results for `CCCCCC(CCO)n1cnc2c(N)nc(Cl)nc21` (racemic) were, in that order, over 50 µM and over 50 µM.
Turning to `CC(C)(C)[Si](C)(C)OCC(CCO)n1cnc2c(Cl)nc(F)nc21` (racemic), the values for the concentration for half-maximal inhibition (IC50) in assay [1] and in assay [2] were 7.78 µM and 8.02 µM, respectively.
On to `CCCCCCC[C@H](CCO)n1cnc2c(Cl)ncnc21`, for which the results for the IC50 in assay [1] and in assay [2] were 2.67 µM and 2.93 µM, respectively.
With `CCCCC(CCO)n1cnc2c(N)ncnc21` (racemic), the IC50 in assay [1] and in assay [2] was over 50 µM each time.
`CCCCCC(CCO)n1cnc2c(Cl)nc(Cl)nc21` (racemic): the 50% inhibitory concentration (IC50) worked out at 6.17 µM in assay [1] and 6.01 µM in assay [2].
The like results for `CCCCCC(CCO)n1c(Br)nc2c(Cl)ncnc21` (racemic) were, in that order, 18.3 µM and 23.8 µM.
The like results for `O=C(OCC(CCO)n1cnc2c(Cl)nc(F)nc21)c1ccccc1` (racemic) were, in that order, 5.17 µM and 7.24 µM.
The like results for `C=C(CO)C(CCCCCC)n1cnc2c(Cl)ncnc21` (racemic) were, in that order, 30.2 µM and 32 µM.
As for `CCCCCCC(CCO)n1cnc2c(Cl)nc(F)nc21` (racemic), the IC50 in assay [1] amounted to 9.96 µM; in assay [2] it was 12.9 µM.
Regarding `C#CCCC1(CCNC(=O)CC(CCCCCCCCC)n2cnc3c(Cl)ncnc32)N=N1` (racemic), the results for the 50% inhibitory concentration (IC50) in assay [1] and in assay [2] were 21.5 µM and 13 µM, respectively. For the same molecule, the outcome in assay [6] and in assay [8] was Active.
`OCCC(COCc1ccccc1)n1cnc2c(Cl)nc(F)nc21` (racemic): the values for the IC50 in assay [1] and in assay [2] were 5.24 µM and 7.17 µM, respectively.
Consider `CCCCCCCCC(CCO)n1cnc2c(N)ncnc21` (racemic), for which the 50% inhibitory concentration (IC50) in assay [1] is 11.6 µM; in assay [2], 20.7 µM.
The like results for `CCCCCCCCC[C@@H](CCO)n1cnc2c(Cl)ncnc21` were, in that order, 1.05 µM and 3.62 µM.
The like results for `CCCCCC(CCO)n1cnc2cncnc21` (racemic) were, in that order, over 50 µM and over 50 µM.
`CCCCCCCC[C@H](CCO)n1cnc2c(Cl)ncnc21`: the half-maximal inhibitory concentration (IC50) in assay [1] turned out to be 1.12 µM; in assay [2] it was 0.32 µM.
The like results for `CCCCCCCCC[C@H](CCOCP(=O)(OCC)OCC)n1cnc2c(Cl)ncnc21` were, in that order, 10.9 µM and 5.57 µM.
Turning to `O=C(OCC(CCO)n1cnc2c(Cl)ncnc21)c1ccccc1` (racemic), the IC50 in assay [1] and in assay [2] was over 50 µM throughout.
For `CCCCCCCCCCCCC(CCO)n1cnc2c(Cl)ncnc21` (racemic), the IC50 in assay [1] and in assay [2] was over 50 µM each time.
As for `CCCC(CCO)n1cnc2c(Cl)ncnc21` (racemic), the IC50 in assay [1] and in assay [2] was over 50 µM each time.
On to `C=C(CO)C(CCCCCCCC)n1cnc2c(Cl)ncnc21` (racemic), for which the concentration for half-maximal inhibition (IC50) in assay [1] came to 19.4 µM; in assay [2], 16.2 µM.
Regarding `CCCCCCCCCC(CCO)n1cnc2c(Cl)nc(Cl)nc21` (racemic), the IC50 in assay [1] came out at 32.6 µM; in assay [2] it was 36.3 µM.
Consider `CC(CCO)n1cnc2c(Cl)ncnc21` (racemic), for which the IC50 in assay [1] and in assay [2] was over 50 µM throughout.
